Legend:
Assay type in all cases: biochemical
E2 protein = conditions: % activity at 1 μM compound; control is related to 100% activity; HTS protocol
c-cbl = c-cbl (Homo sapiens, UniProt P22681); experiment: Selectivity (% A in 1 μM), ubiquitin ligase activity of c-cbl; conditions: % activity at 1 μM compound; control is related to 100% activity; HTS protocol
POSH = target: T1, POSH (Homo sapiens, UniProt Q7Z6J0); experiment: Selectivity (% A in 1 μM), ubiquitin ligase activity of POSH; conditions: % activity at 1 μM compound; control is related to 100% activity; HTS protocol; read-out: Selectivity (% A* in 1 μM) POSH
T1 construct: GST-POSH lot NB81/p.118 3.6 mg/ml; fused on or other part: GST tag, used for detection with anti-GST XL665
T1 sequence (Q7Z6J0 1-269 limits assumed): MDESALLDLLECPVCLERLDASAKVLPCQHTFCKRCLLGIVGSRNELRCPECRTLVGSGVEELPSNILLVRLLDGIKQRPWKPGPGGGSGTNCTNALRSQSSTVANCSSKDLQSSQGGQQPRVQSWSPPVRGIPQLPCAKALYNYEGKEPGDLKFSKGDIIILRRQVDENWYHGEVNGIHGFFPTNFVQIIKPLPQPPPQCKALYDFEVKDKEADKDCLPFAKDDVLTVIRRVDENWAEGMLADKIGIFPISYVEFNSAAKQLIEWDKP
Method: Experimental Protocols: 1. HTS Screening Assay Procedure • Microplates 10109D to 10114D compounds at 1 mM. • (Controls in column 1). • All compounds were perchase from ChemBridge corporation: ChemBridge corporation 16981 Via Tazon, Suite G San Diego, Calif. 92127 a. Microplates Labeling • Put labels to 6 PS U-bottom clear microplate. • Put labels to 18 black microplates (triplicats). b. Microplates Preparation • Put 100 μl GST-POSH at 33 nM in wells of the clear PS U-bottom microplates (exept wells A1-D1). • Negative control: place 100 μl dH2O in wells A1-D1. • (Positive control: place 100 μl GST-POSH at 33 nM in wells E1-H1). • Put 8 μl enzymes solution ×4 to black microplates (column 1 to 11). c. Incubation of E3 with Compounds • Transfer 5 μl of compounds (at 1 mM) to the microplates containing 100 μl GST-POSH. • Add 5 μl of DMSO to controls column 1. • Incubation 30 minutes at RT. d. […] 2. […] Microplates Labeling • Put labels to 4 clear PP clear microplate (18.2 μM, 9.1 uM, 1.82 uM, 910 nM,). • Put labels to 5 clear PS U-bottom clear microplate 4.44 μM, 909, 444, 91 and 44 nM) • Put labels to 15 black microplates (triplicates). f. Original Microplate Dilutions • Put DMSO 40 μl to (18.2 μM, 1.82 uM plates) and 20 ul to (9.1 uM, 910 nM plates. • Mix by pipetation the original microplate (3× up and down 45 μl). • Transfer 10 μl of compounds from the original microplate (at 91 μM) to the next microplate (=18.2 μM) on splitting apparatus. • Mix by pipetation the 18.2 uM microplate (3× up and down 45 μl). • Transfer 20 μl of compounds from the 18.2 uM microplate to the next microplate (=9.1 μM) on splitting apparatus. • Mix by pipetation the 9.1 uM microplate (3× up and down 45 μl). • Transfer 10 μl of compounds from the 9.1 uM microplate to the next microplate (=1.82 μM) on splitting apparatus. • Mix by pipetation the 1.82 uM microplate (3× up and down 45 μl). • Transfer 20 μl of compounds from the 1.82 uM microplate to the next microplate (=910 nM) on splitting apparatus • Mix by pipetation. g. Microplates Preparation • Put 123 μl GST-POSH at 33 nM in wells of the 5 clear PS U-bottom clear microplates. • Positive control: place 123 μl GST-POSH at 33 nM in well A12-h12 13 μl DMSO. • Negative control: place 123 μl dH2O in well B1 and 13 μl DMSO. • Put 8 μl enzymes solution ×4 to 15 black microplates. • Controls: put 8 μl enzymes solution ×4 to wells A1 to F1. h. Incubation of POSH with Compounds • Take 7 μl of compounds at original plate (91 μM) and put into the 4.44 μM labeled microplate containing 123 μl GST-POSH, on splitting apparatus. • Mix by pipetation (3× up and down 115 μl), note time. • Take 7 μl of compounds at 18.2 μM and put into the 910 nM labeled microplate containing 123 μl GST-POSH, on splitting apparatus. • Mix by pipetation (3× up and down 115 μl), note time. • Take 7 μl of compounds at 9.1 μM and put into the 444 nM labeled microplate containing 123 μl GST-POSH, on splitting apparatus. • Mix by pipetation (3× up and down 115 μl), note time. • Take 7 μl of compounds at […] and put into the 91 nM labeled microplate containing 123 μl GST-POSH, on splitting apparatus. • Mix by pipetation (3× up and down 115 μl), note time. • Take 7 μl of compounds at 91.0 nM and put into the 44 nM labeled microplate containing 123 μl GST-POSH, on splitting apparatus. • Mix by pipetation (3× up and down 115 μl), note time. • Incubation 30 minutes at RT. i.

Row | Compound | Selectivity (% A* in 1 μM) E2 (E2 protein) | remaining activity at 1 µM (c-cbl) | remaining activity at 1 µM (POSH)
1 | O=C1N=C(c2ccccc2)S/C1=C/c1ccc(-c2cccc([N+](=O)[O-])c2)o1 [Compound 36] | 82% | 86% | 6%
2 | COc1ccc(CC(C)NCc2ccccc2Cl)cc1 (stereo not drawn) [Compound 107] | – | – | 68%
3 | Oc1c(Br)cc(Br)cc1/C=N/c1ccc(Br)cn1 [Compound 61] | 52% | 133% | 35%
4 | COc1ccccc1N1C(=O)NC(=O)/C(=C\C=C\c2ccccc2)C1=O [Compound 10] | – | – | 15%
5 | Cc1cc(/N=C/c2c(O)ccc3ccccc23)no1 [Compound 111] | 49% | 98% | 17%
6 | C=CCN1C(=O)NC(=O)/C(=C/c2ccc(F)cc2)C1=O [Compound 12] | – | – | 54%
7 | O=[N+]([O-])c1ccc2c(c1)Cc1cc(/N=C/c3ccc(Br)cc3)ccc1-2 [Compound 67] | 98% | 92% | 103%
8 | Cc1cc(I)ccc1NCn1nnc2ccccc21 [Compound 105] | 93% | 117% | 28%
9 | O=C1C(=Cc2ccco2)C(=O)N(c2ccccc2)C(=S)N1c1ccccc1 [Compound 13] | – | – | 7%
10 | O=C(C(Cl)Cl)N1CCN(c2ccc([N+](=O)[O-])cc2)CC1 [Compound 79] | 55% | 89% | 120%
11 | Oc1c(Br)cc(Br)cc1/C=N/c1cccc2nsnc12 [Compound 112] | 84% | 117% | 27%
12 | Oc1ccc2ccccc2c1/C=N/c1ncc(Br)cc1Br [Compound 66] | 117% | 107% | 53%
13 | O=C1NC(=O)N(c2ccc(Br)cc2)C(=O)/C1=C/c1ccc(O)cc1 [Compound 5] | – | – | 13%
14 | O=c1nc(C(F)(F)F)cc(/C=C/c2ccc(-c3ccc(Br)cc3)o2)[nH]1 [Compound 39] | 98% | 132% | 29%
15 | CCOC(=O)c1c(/N=C/c2cc(Br)ccc2O)sc2c1CCCC2 [Compound 68] | 57% | 91% | 72%
16 | O=C1C=CC(=O)N1c1cc(Cl)cc(Cl)c1 [Compound 23] | 112% | 102% | 9%
17 | O=[N+]([O-])c1ccc(Cl)cc1CN1CCN(CCO)CC1 [Compound 82] | 47% | 77% | 60%
18 | O=C1/C(=C\c2cccc([N+](=O)[O-])c2)Sc2ccccc21 [Compound 52] | 63% | 124% | 80%
19 | COc1ccc(/C=C/C(=O)C2C(=O)CCC2=O)cc1OC [Compound 113] | 66% | 93% | 74%
20 | O=C1NC(=O)/C(=C\c2ccc(-c3ccc(F)cc3)o2)S1 [Compound 108] | – | – | 42%

Row | Compound | Selectivity (% A* in 1 μM) E2 (E2 protein) | remaining activity at 1 µM (c-cbl) | remaining activity at 1 µM (POSH)
21 | COc1ccc(N2C(=O)NC(=O)/C(=C\c3ccc(Cl)cc3)C2=O)cc1 [Compound 7] | – | – | 108%
22 | N/N=C\c1ccc(-c2cccs2)s1 [Compound 37] | 97% | 93% | 41%
23 | Cc1ccc(/C=N/c2ccc(Cl)cc2)o1 [Compound 74] | 96% | 110% | 17%
24 | COC(=O)c1ccc(N2C(=O)c3cccc(N)c3C2=O)cc1 [Compound 21] | 75% | 91% | 83%
25 | O=C1NC(=S)N(c2ccccc2)C(=O)/C1=C\c1c(Cl)cccc1Cl [Compound 6] | – | – | 14%
26 | O=C1/C(=C\c2ccc(Cl)c([N+](=O)[O-])c2)Sc2ccccc21 [Compound 50] | 103% | 155% | 39%
27 | O=C1\C(=C/C=C/C=C/Nc2ccccc2)SC(=S)N1c1ccccc1 [Compound 24] | 87% | 90% | 7%
28 | CC(C)Oc1ccc(/C=C2/SC(=S)NC2=O)cc1 [Compound 26] | 61% | 85% | 69%
29 | Oc1c(Cl)cc(Cl)cc1/C=N/c1ccc(-c2nc3ccccc3[nH]2)cc1 [Compound 63] | 109% | 95% | 30%
30 | Cc1ccc(/C=N/c2ccc(C(N)=O)cc2)o1 [Compound 73] | 64% | 90% | 16%
31 | COc1cc(C=C2C(=O)N(C)C(=S)N(C)C2=O)ccc1O [Compound 9] | – | – | 91%
32 | Oc1ccc(/N=C/c2cccs2)cc1-c1nc2ccccc2s1 [Compound 71] | 86% | 84% | 9%
33 | O=c1oc2cc(O)ccc2cc1-c1csc(-c2ccc(Cl)cc2)n1 [Compound 40] | 117% | 95% | 24%
34 | O=C1N=C(c2ccccc2)S/C1=C/c1ccc2ccccc2c1 [Compound 41] | 82% | 141% | 17%
35 | Oc1c(Br)cc(Br)cc1/C=N/c1nc2ccccc2s1 [Compound 62] | 94% | 134% | 37%
36 | COc1ccccc1/C=C1\N=C(c2ccccc2Cl)OC1=O [Compound 49] | 43% | 127% | 77%
37 | COc1ccc(/C=C2\C(=O)NC(=S)N(c3ccccc3)C2=O)cc1 [Compound 11] | – | – | 21%
38 | COc1cc(N/C=C2/C(=O)NC(=S)N(c3cccc(C)c3)C2=O)cc(OC)c1 [Compound 16] | – | – | 51%
39 | COc1cc(N/C=C2/C(=O)NC(=S)N(c3ccc(F)cc3)C2=O)cc(OC)c1 [Compound 17] | – | – | 71%

From US7659277B2, “Ubiquitin ligase inhibitors and methods related thereto” (Proteologies, Ltd., priority 2003, dated 2010)
